What was measured:
[1] = test system: α1-acid glycoprotein (AGP); assay: fluorescence quenching of α1-acid glycoprotein; format: binding; settings: AGP 2 μM, ligand 0.25-2.5 μM, PBS pH 7.4, λex 285 nm
Method: (§1) Human serum albumin (HSA) (product code: A1653) and α1-acid glycoprotein (AGP) (product code: G9885) were purchased from Merck (Darmstadt, Germany) and used as received. Fluorescence emission spectra were recorded using a Hitachi F-4500 fluorometer (Tokyo, Japan), while absorption spectra were collected by employing a Hitachi U-3900 UV–Vis spectrophotometer (Tokyo, Japan). Before the evaluation of fluorescence data, the inner-filter effects of MI-1851 and MI-2415 were corrected based on the following equation [23, 24]:(1) Icor=Iobs×e^(Aex+Aem)/2 where Icor and Iobs are the corrected and observed emission intensities, respectively; and Aex and Aem are the absorbance of the MI compounds tested at the excitation and emission wavelengths used, respectively.
(§2) To examine the potential interaction of inhibitor MI-2415 with HSA, increasing levels of the ligand (final concentrations: 0, 1, 2, 3, 4, 7, and 10 μM) were added to a standard amount of the protein (2 μM) in PBS (pH 7.4), and then the emission spectra were recorded (λex = 295 nm, λem = 340 nm). Furthermore, the quenching effects of inhibitors MI-1851 and MI-2415 (both 0, 0.25, 0.5, 1, 1.5, 2, and 2.5 μM) were also tested on the emission signal of AGP (2 μM) in PBS (λex = 285 nm, λem = 337 nm).

furin = settings: read-out: Ki for furin; cited from earlier work
[2] = molecular target: T1, Human serum albumin (HSA) (Homo sapiens, UniProt P02768); settings: same experimental model, earlier study; cited from earlier work
T1 construct: purchased Merck (Darmstadt, Germany) A1653

CYP3A4 [3] = molecular target: T2, CYP3A4 (Homo sapiens, UniProt P08684); set-up: method as in PMID 35594709; settings: PHH, previous studies; cited from earlier work
CYP3A4 [4] = molecular target: T2, CYP3A4; assay: microsomal CYP3A4 activity assay (human hepatic microsomes); format: in vitro ADME; set-up: human hepatic microsomes (Gibco, Biocenter, Szeged, Hungary); tissue Gibco (Biocenter, Szeged, Hungary); host or cells: human liver microsomes; settings: for microsomal CYP3A4 function: 25, 50 and 100 µM; for inhibition at 100 µM: human, read-out: CYP3A4 inhibitory activities
Method: To investigate the effects of inhibitor MI-2415 on CYP3A4 activities, a P450-Glo CYP450 assay (Promega, Madison, WI, USA) was used. […] This luminescent method involves adding a cell-permeable Luciferin-IPA at 3 µM, which was used in 300 µL phenol-red free Williams’ Medium E in each well in the CYP3A4 assay with an incubation time of 1 h. The luminescence activity of the product in the presence of the luciferin detection reagent was proportional to the CYP activity. For the microsomal CYP3A4 assay of inhibitors MI-1851 and MI-2415 at 25, 50, and 100 µM (n = 3), BioVision CYP assays (BioVision, Inc., Kampenhout, Belgium) were used according to the manufacturer’s instructions. The protein content of human hepatic microsomes (Gibco, Biocenter, Szeged, Hungary) was determined by the bicinchoninic acid protein assay kit (Pierce BCA kit, Thermo Fisher Scientific, Waltham, MA, USA) and a 100 µg/well protein was used in each study. […] A Victor X2 2030 fluorescence spectrometer (Perkin Elmer, Waltham, MA, USA) was used to detect the fluorescence intensities of the microsomal CYP3A4 function at wavelengths of λex/em = 535/587 nm and it was also applied to detect the luminescence signals of the cell-based CYP3A4 activity assay.

[5] = molecular target: T1, Human serum albumin (HSA); assay: fluorescence quenching of human serum albumin; format: binding; settings: HSA 2 μM, ligand 1-10 μM, PBS pH 7.4, λex 295 nm
Method: as §1, §2

[6] = test system: primary human hepatocytes (PHH); assay: CCK-8 cytotoxicity assay in primary human hepatocytes; format: cell-based; settings: 50 µM and 100 µM, 24 h
Method: (§3) PHHs were purchased from Primacyt Cell Culture Technology GmbH (Schwerin, Germany). Hepatocytes were thawed using hepatocyte recovery medium (Primacyt, Schwerin, Germany) and cells were centrifuged (10 min, 100× g, 20 °C) to remove supernatants. Cells were incubated with 5% FBS-containing plating medium for 6 h, then with FBS-free maintenance medium at 37 °C with 5% CO2 (both media were obtained from Primacyt, Schwerin, Germany) on Matrigel-coated membrane inserts (Costar Transwell-COL PTFE permeable supports, 6.5 mm inserts, 0.4 µm pore size, 24-well plate, Corning Incorporated, Kennebunk, ME, USA) for the CCK-8 and Amplex Red procedures. Maintenance medium without FBS was replaced every 24 h and the cells were incubated.
The possible cytotoxic effects of the inhibitors MI-1851 and MI-2415 (structures provided in Figure 1) in different concentrations on IPEC-J2 and those of inhibitor MI-2415 on PHHs were assessed for 24 h by performing the CCK-8 assay (Dojindo Molecular Technologies, Rockville, MD, USA). […] Following three times washing of the wells with PBS, 10 µL CCK-8 reagent mixed with 100 µL fresh Williams’ Medium E was added and the absorbance values were measured at 450 nm using the SpectraMax iD3 microplate reader (Molecular Devices, San José, CA, USA) after 2 h incubation. […]

[7] = test system: primary human hepatocytes (PHH); assay: Amplex Red extracellular H2O2 assay in primary human hepatocytes; format: cell-based; settings: 50 µM and 100 µM, 24 h
Method: as §3
To evaluate the cellular responses of IPEC-J2 to the inhibitors MI-1851 and MI-2415, and those of PHHs to MI-2415, at different concentration levels, the Amplex Red hydrogen peroxide assay kit (Invitrogen, Molecular Probes, Budapest, Hungary) in combination with horseradish peroxidase has been used. In the presence of hydrogen peroxide (in 1:1 stoichiometry), Amplex Red produces a red fluorescent oxidation product, resorufin. The IPEC-J2 cells and PHHs were treated for 24 h with the inhibitor(s) at different concentration levels (50 and 100 μM). […]

T2 sequence (P08684 whole entry): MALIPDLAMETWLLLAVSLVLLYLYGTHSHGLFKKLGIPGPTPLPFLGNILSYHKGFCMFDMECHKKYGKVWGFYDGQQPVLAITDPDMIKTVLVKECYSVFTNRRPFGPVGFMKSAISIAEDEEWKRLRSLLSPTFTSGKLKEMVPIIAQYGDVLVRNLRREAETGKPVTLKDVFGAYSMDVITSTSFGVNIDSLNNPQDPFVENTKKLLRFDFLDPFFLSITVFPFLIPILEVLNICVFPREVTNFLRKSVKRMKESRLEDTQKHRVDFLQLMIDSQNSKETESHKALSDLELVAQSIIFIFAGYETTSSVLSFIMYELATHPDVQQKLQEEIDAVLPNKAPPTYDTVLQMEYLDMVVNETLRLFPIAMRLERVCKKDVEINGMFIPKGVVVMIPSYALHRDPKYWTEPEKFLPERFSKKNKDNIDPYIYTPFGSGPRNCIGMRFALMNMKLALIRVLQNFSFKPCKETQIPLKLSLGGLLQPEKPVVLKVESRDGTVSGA
T1 sequence (P02768 25-609): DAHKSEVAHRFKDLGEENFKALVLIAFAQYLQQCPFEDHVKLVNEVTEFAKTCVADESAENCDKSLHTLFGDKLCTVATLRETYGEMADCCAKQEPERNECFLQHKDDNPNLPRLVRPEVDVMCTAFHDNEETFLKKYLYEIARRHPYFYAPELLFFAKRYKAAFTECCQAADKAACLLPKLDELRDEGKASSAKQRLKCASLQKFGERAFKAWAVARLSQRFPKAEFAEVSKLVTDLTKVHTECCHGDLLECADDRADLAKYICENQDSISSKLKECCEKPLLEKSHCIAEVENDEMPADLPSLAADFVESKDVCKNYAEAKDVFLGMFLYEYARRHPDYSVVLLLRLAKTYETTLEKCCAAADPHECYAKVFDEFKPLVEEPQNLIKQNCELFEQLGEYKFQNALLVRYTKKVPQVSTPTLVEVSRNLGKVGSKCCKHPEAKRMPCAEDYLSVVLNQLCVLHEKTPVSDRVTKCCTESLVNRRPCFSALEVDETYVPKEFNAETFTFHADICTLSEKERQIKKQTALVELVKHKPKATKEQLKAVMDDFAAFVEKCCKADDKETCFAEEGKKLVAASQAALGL

## CC(C)(C)[C@H](NC(=O)[C@H](CCONC(=N)N)NC(=O)Cc1ccc(CNC(=N)N)cc1)C(=O)N[C@@H](CCONC(=N)N)C(=O)NCc1ccc(C(=N)N)cc1 [MI-1851]
[1]
  effect on fluorescence signal of AGP at 337 nm: did not induce relevant changes in the fluorescence signal of AGP
furin
  Ki: 10.1 pM
[2]
  effect on emission signal of HSA: did not affect the emission signal of HSA
CYP3A4 [3]
  concentration at which significant inhibition of CYP3A4 was already observed: 20 µM
CYP3A4 [4]
  microsomal CYP3A4 function: suppressed CYP3A4 function in a concentration-dependent manner
  inhibition at 100 µM: 30 to 50%

## CC(C)(C)[C@H](NC(=O)[C@H](CCONC(=N)N)NC(=O)Cc1ccc(CNC(=N)N)cc1)C(=O)N[C@@H](CCONC(=N)N)C(=O)NCc1ccc2c(c1)CN=C2N [MI-2415]
[5]
  effect on emission intensity of HSA at 340 nm: did not influence the emission intensity of HSA
[1]
  effect on fluorescence signal of AGP at 337 nm: did not induce relevant changes in the fluorescence signal of AGP
[6]
  cell death in PHHs: did not lead to significant cell death
[7]
  extracellular H2O2 production in PHHs: did not cause a redox imbalance
furin
  Ki: 7.1 pM
CYP3A4 [4]
  concentration from which CYP3A4 inhibition is significant: 50 µM
  microsomal CYP3A4 function: reduce CYP3A4 activity but only from 50 µM
  inhibition at 100 µM: 30 to 50%

Reference: article PMC11444200, “In Vitro Evaluation of Antipseudomonal Activity and Safety Profile of Peptidomimetic Furin Inhibitors” (Biomedicines, 2024)
